# Reference: ChEMBL document CHEMBL3044686, “Synthesis and biological evaluation of some new quinazolin-4(3H)-ones derivatives as anticonvulsants” (Med Chem Res, 2013)
# Calls of active or inactive are those of the source. The calls are words filed in the database; no cut-off is given here.
# Legend:
# [1] = tested on: Mus musculus; assay: Anticonvulsant activity in albino CF-1 Mus musculus (mouse) assessed as protection against maximal electroshock-induced seizures at 300 mg/kg measured after 0.5 hr by electroshock seizure method; assay type: functional, organism-based; design: dose 300 mg/kg
# [2] = tested on: Mus musculus; assay: Toxicity in albino CF-1 Mus musculus (mouse) assessed as motor impairment at 300 mg/kg measured after 4 hr by rotarod test; assay type: organism-based; design: dose 300 mg/kg; conditions: in vivo
# [3] = tested on: Mus musculus; assay: Toxicity in albino CF-1 Mus musculus (mouse) assessed as motor impairment at 300 mg/kg measured after 0.5 hr by rotarod test; assay type: organism-based; design: dose 300 mg/kg; conditions: in vivo
# [4] = species on record: Mus musculus; assay: Anticonvulsant activity in albino CF-1 Mus musculus (mouse) assessed as minimum dose required to protect half or more animals against maximal electroshock-induced seizures measured after 4 hr by electroshock seizure method; assay type: functional; conditions: albino CF-1, 4 h, read-out: MED
# [5] = species on record: Mus musculus; assay: Anticonvulsant activity in albino CF-1 Mus musculus (mouse) assessed as minimum dose required to protect half or more animals against maximal electroshock-induced seizures measured after 0.5 hr by electroshock seizure method; assay type: functional; conditions: albino CF-1, 0.5 h, read-out: MED
# [6] = tested on: Mus musculus; assay: Induction of CNS depressant activity in albino CF-1 Mus musculus (mouse) assessed as increase in immobility at 100 mg/kg, ip measured after 30 min by Porsolt's force swim pool method; assay type: organism-based, Central nervous system; design: dose 100 mg/kg, route intraperitoneal; conditions: in vivo, 0.5 h
# [7] = tested on: Mus musculus; assay: Induction of CNS depressant activity in albino CF-1 Mus musculus (mouse) assessed as duration of immobility at 100 mg/kg, ip measured after 30 min by Porsolt's force swim pool method (reference value: 52.7 +/-0.70 secs); assay type: organism-based, Central nervous system; design: dose 100 mg/kg, route intraperitoneal; conditions: in vivo, 0.5 h
# [8] = species on record: Mus musculus; assay: Toxicity in albino CF-1 Mus musculus (mouse) assessed as minimum dose required to induce motor impairment in half or more animals measured after 4 hr by rotarod test; assay type: organism-based; conditions: in vivo
# [9] = species on record: Mus musculus; assay: Toxicity in albino CF-1 Mus musculus (mouse) assessed as minimum dose required to induce motor impairment in half or more animals measured after 0.5 hr by rotarod test; assay type: organism-based; conditions: in vivo
Activity [6],Time [7],SMILES,Activity [1],Activity [2],Activity [3],minimal effective dose [4],minimal effective dose [5],MED [8],MED [9]
–,–,COc1cccc(/C=N/n2c(-c3ccccc3)nc3ccccc3c2=O)c1,inactive,Non-toxic,Non-toxic,100 mg/kg,–,–,–
–,–,CC(C)Oc1cccc(/C=N/n2c(-c3ccccc3)nc3ccccc3c2=O)c1,–,Non-toxic,Non-toxic,300 mg/kg,300 mg/kg,–,–
–,–,O=c1c2ccccc2nc(-c2ccccc2)n1/N=C/c1cccc(O)c1,inactive,Non-toxic,Non-toxic,100 mg/kg,–,–,–
110.81%,111.1 s,C=CCCOc1cccc(/C=N/n2c(-c3ccccc3)nc3ccccc3c2=O)c1,–,Non-toxic,Non-toxic,100 mg/kg,300 mg/kg,–,–
–,–,O=C1NC(=O)C(c2ccccc2)(c2ccccc2)N1 [PHENYTOIN],–,–,Non-toxic,30 mg/kg,30 mg/kg,100 mg/kg,–
56.35%,82.4 s,NC(=O)N1c2ccccc2C=Cc2ccccc21 [CARBAMAZEPINE],–,–,–,30 mg/kg,30 mg/kg,100 mg/kg,300 mg/kg
52.18%,80.2 s,CCCOc1cccc(/C=N/n2c(-c3ccccc3)nc3ccccc3c2=O)c1,–,Non-toxic,Non-toxic,30 mg/kg,100 mg/kg,–,–
–,–,CCCCOc1cccc(/C=N/n2c(-c3ccccc3)nc3ccccc3c2=O)c1,–,Non-toxic,Non-toxic,100 mg/kg,300 mg/kg,–,–
29.6%,68.3 s,CCOc1cccc(/C=N/n2c(-c3ccccc3)nc3ccccc3c2=O)c1,–,Non-toxic,Non-toxic,100 mg/kg,100 mg/kg,–,–
–,–,O=c1c2ccccc2nc(-c2ccccc2)n1/N=C/c1cccc(OCc2ccccc2)c1,inactive,–,Non-toxic,300 mg/kg,–,300 mg/kg,–
–,–,C=CCOc1cccc(/C=N/n2c(-c3ccccc3)nc3ccccc3c2=O)c1,–,Non-toxic,Non-toxic,300 mg/kg,300 mg/kg,–,–
